Measurements as given in patent US20240165054A1, “TREATMENT” (Verona Pharma PLC, priority 2022, published 2024).

How the values were obtained:
[1] = system: patients with moderate to severe COPD; assay: Clinical study of nebulised ensifentrine vs placebo in COPD: lung function (FEV1); format: in vivo, human; settings: all subgroups of COPD patients in the study
Protocol: (§1) A clinical study was conducted to determine the efficacy of ensifentrine in treating COPD compared with placebo. Ensifentrine was administered by nebuliser at a dose of 3 mg twice daily (BID) for 24 weeks. The study was a multi-centre, randomized, double-blind, parallel-group, placebo-controlled trial with around 800 patients and 5:3 randomization.
(§2) The study population included patients aged 40-80 years with moderate to severe COPD (FEV1 30%-70% p.n., FEV1/forced vital capacity [FVC] ratio <0.7, with mMRC≥2). The randomization stratified (a) the use of stable background maintenance LAMA or LABA therapy use (approx. 50%. yes or no) and (b) cigarette smoking (current or former). Inhaled corticosteroid (ICS) maintenance therapy was permitted in up to 20% of patients under certain provisions.
(§3) The primary endpoint of the study was change from baseline in average FEV1 area under the curve (AUC)0-12 h post-dose at week 12. Secondary endpoints of the study included: peak FEV1 over 4 hours post-dose at Week 12; morning trough FEV1 at Week 12; and other endpoints including moderate/severe COPD exacerbations frequency and time to first moderate or severe COPD exacerbation over 24 Weeks.
Baseline FEV1 is the mean of the two measurements taken before study medication on the day of first dosing, i.e. ≤40 minutes and just prior to dosing, pre-dose on day 1. […]

[2] = system: patients with moderate to severe COPD; assay: Clinical study of nebulised ensifentrine vs placebo in COPD: moderate/severe COPD exacerbations; format: in vivo, human
Protocol: as §1, §2, §3
Exacerbations were defined as worsening of 2 or more major symptoms (dyspnea, sputum volume, and sputum purulence) or worsening of any 1 major symptom together with any 1 of the following minor symptoms: sore throat, colds, fever without other cause, and increased cough or wheeze for at least 2 consecutive days. COPD exacerbations were considered to be of moderate severity if treatment with systemic corticosteroids and/or antibiotics was required and were considered to be severe if hospitalization was required.
The investigational product and placebo were provided in 2.5 mL unit dose format in an ampule and administered via a nebuliser.

[3] = system: COPD patients; settings: vs placebo; population as given per drug; cited from earlier work

Compound | Improvement in lung function in subgroups [1] | Reduction in relative risk of moderate or severe COPD exacerbation vs placebo ([2]; 3 mg BID by nebuliser, over 24 weeks, including 52% of patients on background bronchodilator medications) | Reduction in the frequency of COPD exacerbations compared with other treatments ([2]; comparison with literature treatments of Table 4) | Time to first exacerbation / frequency of COPD exacerbations (conclusion) ([2]; over 24 weeks) | Rate Reduction (=1-Rate Ratio) of COPD exacerbations [3]
COc1cc2c(cc1OC)-c1c/c(=N\c3c(C)cc(C)cc3C)n(CCNC(N)=O)c(=O)n1CC2 [Ensifentrine, N-(2-{(2E)-9,10-dimethoxy-4-oxo-2-[(2,4,6-trimethylphenyl)imino]-6,7-dihydro-2H-pyrimido[6,1-α]isoquinolin-3(4H)-yl}ethyl)urea] | improvement in lung function with ensifentrine that was statistically significant | approximately 40% | greater reduction in the frequency of COPD exacerbations than other treatments | particularly effective in increasing the time to first exacerbation | –
CS(=O)(=O)Nc1ccc(C(=O)O[C@@H](Cc2c(Cl)c[n+]([O-])cc2Cl)c2ccc(OC(F)F)c(OCC3CC3)c2)cc1OCC1CC1 [Tanimilast] | – | – | – | – | 13-28% all doses
